Test results published in ChEMBL document CHEMBL6071169, “Maydisens, Sesterterpenoids with Anti-MDR Activity from Bipolaris maydis” (J Nat Prod, 2024).
Activity calls are given as the source filed them. The calls are words filed in the database; no cut-off is given here.

How the values were obtained:
[1] = system: A549; assay: Cytotoxicity against human A549 cells at 20 uM incubated for 72 hrs by CCK-8 method; format: functional, cell-based
[2] = system: SW620/AD300; assay: Cytotoxicity against human SW620/AD300 cells at 20 uM incubated for 72 hrs by CCK-8 method; format: functional, cell-based
[3] = system: LNCaP C4-2B; assay: Cytotoxicity against human LNCaP C4-2B cells at 20 uM incubated for 72 hrs by CCK-8 method; format: functional, cell-based
[4] = system: MDA-MB-453; assay: Cytotoxicity against human MDA-MB-453 cells at 20 uM incubated for 72 hrs by CCK-8 method; format: functional, cell-based
[5] = system: SW620/AD300; assay: Reversal of paclitaxel resistance in human SW620/AD300 cells assessed as reversal fold by measuring ratio of paclitaxel IC50 to paclitaxel IC50 in presence of test compound at 20 uM and measured after 72 hrs by CCK-8 method; format: functional
[6] = system: SW620/AD300; assay: Reversal of paclitaxel resistance in human SW620/AD300 cells assessed as reduction in paclitaxel IC50 at 20 uM and measured after 72 hrs by CCK-8 method (reference value: 3.4 +/- 0.1 microM); format: functional, cell-based; details: SW620/AD300, 72 h
[7] = system: SW620/AD300; assay: Inhibition of colony formation in human SW620/AD300 cells assessed as decrease in colony count at 1 uM measured after 7 days by crystal violet staining based analysis; format: functional, cell-based; details: time 7.0 day
[8] = system: SW620/AD300; assay: Induction of cell cycle analysis in human SW620/AD300 cells assessed as increase in accumulation of cells at G0/G1 phase at 5 to 20 uM measured after 24 hrs by flow cytometry analysis; format: functional, cell-based; details: dose 5-20 µM
[9] = system: SW620/AD300; assay: Inhibition of colony formation in human SW620/AD300 cells assessed as decrease in colony count at 20 uM measured after 7 days by crystal violet staining based analysis; format: functional, cell-based; details: time 7.0 day
[10] = system: SW620/AD300; assay: Inhibition of colony formation in human SW620/AD300 cells assessed as decrease in colony count at 5 uM measured after 7 days in presence of paclitaxel by crystal violet staining based analysis; format: functional, cell-based; details: time 7.0 day
[11] = system: SW620/AD300; assay: Inhibition of colony formation in human SW620/AD300 cells assessed as decrease in colony count at 20 uM measured after 7 days in presence of paclitaxel by crystal violet staining based analysis; format: functional, cell-based; details: time 7.0 day
[12] = system: SW620/AD300; assay: Induction of cell cycle analysis in human SW620/AD300 cells assessed as increase in accumulation of cells at G2/M phase measured after 24 hrs by flow cytometry analysis; format: functional, cell-based; details: dose 5-20 µM

Question: How did the Activity [1] turn out when CC(C)=CCC[C@H](C)C1=CC[C@]2(C)C[C@@H]3C(C)=CC(=O)[C@H]3/C(C=O)=C\C=C\12 was run?
Answer: inactive

Question: What about the Activity [2] of the same molecule?
Answer: inactive

Question: And the Activity [3]?
Answer: inactive

Question: What about the Activity [4] of the same molecule?
Answer: inactive

Question: What does the source list for CC(C)=CCC[C@H](C)[C@H]1CC[C@]2(C)CC3=C(C(=O)C[C@H]3C)/C(CO)=C\C[C@@H]12?
Answer: Activity [1]: inactive; Activity [2]: inactive; Activity [3]: inactive; Activity [4]: inactive

Question: Which Activity [1] does the source give for C/C1=C/C[C@H]2[C@@H]([C@@H](C)CC/C=C(\C)CO)CC[C@]2(C)C/C=C(\C)CC[C@@H]1O here?
Answer: inactive

Question: What about the Activity [2] of the same molecule?
Answer: inactive

Question: And the Activity [3]?
Answer: inactive

Question: What about the Activity [4] of the same molecule?
Answer: inactive

Question: How did the Activity [1] turn out when CC(C)=CCC[C@H](C)[C@H]1CC[C@]2(C)C[C@@H]3C(CO)=CC(=O)[C@H]3/C(C)=C\C[C@@H]12 was run?
Answer: inactive

Question: What about the Activity [2] of the same molecule?
Answer: inactive

Question: And the Activity [3]?
Answer: inactive

Question: What about the Activity [4] of the same molecule?
Answer: inactive

Question: Which Activity [1] does the source give for C/C1=C/C[C@H]2[C@@H]([C@@H](C)CC/C=C(\C)C(=O)O)CC[C@]2(C)C/C=C(\C)CC[C@@H]1O here?
Answer: inactive

Question: What about the Activity [2] of the same molecule?
Answer: inactive

Question: And the Activity [3]?
Answer: inactive

Question: And the Activity [4]?
Answer: inactive

Question: What does the source list for CC(C)=C/C=C/[C@H](C)[C@H]1CC[C@]2(C)C[C@@H]3C(C)=CC(=O)[C@H]3/C(CO)=C\C[C@@H]12?
Answer: Activity [1]: inactive; Activity [2]: inactive; Activity [3]: inactive; Activity [4]: inactive

Question: Which Activity [1] does the source give for CC(C)=CCC[C@H](C)[C@H]1CC[C@]2(C)C[C@@]3(O)[C@H](C)CC(=O)[C@@H]3/C(CO)=C\C[C@@H]12 here?
Answer: inactive

Question: And the Activity [2]?
Answer: inactive

Question: And the Activity [3]?
Answer: inactive

Question: And the “Ratio IC50” value [5]?
Answer: 3

Question: And the IC50 [6]?
Answer: 1000 nM

Question: And the Activity [4]?
Answer: inactive

Question: With CC(C)=CC(=O)C[C@H](C)[C@H]1CC[C@]2(C)C[C@@H]3C(C)=CC(=O)[C@H]3/C(CO)=C\C[C@@H]12 as the molecule, how does the Activity [1] read?
Answer: inactive

Question: And the Activity [2]?
Answer: inactive

Question: And the Activity [3]?
Answer: inactive

Question: And the “Ratio IC50” value [5]?
Answer: 17

Question: And the IC50 [6]?
Answer: 200 nM

Question: And the Activity [4]?
Answer: inactive

Question: How did the Activity [1] turn out when C/C1=C\C[C@@]2(C)CC[C@H]([C@@H](C)CC/C=C(\C)C(=O)O)/C2=C/C[C@@]2(C)O[C@@H]2CC1 was run?
Answer: inactive

Question: What about the Activity [2] of the same molecule?
Answer: inactive

Question: What about the Activity [3] of the same molecule?
Answer: inactive

Question: And the Activity [4]?
Answer: inactive

Question: COC(OC)/C1=C/[C@H](O)[C@H]2[C@@H]([C@@H](C)CCC=C(C)C)CC[C@]2(C)C[C@@H]2C(C)=CC(=O)[C@@H]12 was tested. Which Activity [1] did it give?
Answer: inactive

Question: And the Activity [2]?
Answer: inactive

Question: What about the Activity [3] of the same molecule?
Answer: inactive

Question: What about the “Ratio IC50” value [5] of the same molecule?
Answer: 13

Question: What about the IC50 [6] of the same molecule?
Answer: 250 nM

Question: And the Activity [4]?
Answer: inactive

Question: Which Activity [1] does the source give for C/C(=C\CC[C@](C)(O)[C@H]1CC[C@]2(C)C/C=C(\C)CC/C=C(\C)CC[C@@H]12)CO here?
Answer: inactive

Question: And the Activity [2]?
Answer: inactive

Question: And the Activity [3]?
Answer: inactive

Question: What about the Activity [4] of the same molecule?
Answer: inactive

Question: For CC(=O)O[C@H]1C(=O)[C@@]2(C)[C@H]([C@H](OC(=O)c3ccccc3)[C@]3(O)C[C@H](OC(=O)[C@H](O)[C@@H](NC(=O)c4ccccc4)c4ccccc4)C(C)=C1C3(C)C)[C@]1(OC(C)=O)CO[C@@H]1C[C@@H]2O, which inhibition [7] is on record?
Answer: inactive

Question: CC(C)=CCC[C@H](C)[C@H]1CC[C@]2(C)C[C@@H]3C(C)=CC(=O)[C@H]3[C@@H](CO)/C=C\[C@@H]12 was tested. Which Activity [1] did it give?
Answer: inactive

Question: What about the Activity [2] of the same molecule?
Answer: inactive

Question: And the Activity [3]?
Answer: inactive

Question: And the Activity [4]?
Answer: inactive

Question: Which Activity [1] does the source give for CC(C)=CCC[C@H](C)C1=CC[C@]2(C)C[C@@H]3C(C)=CC(=O)[C@H]3/C(CO)=C\C[C@@H]12 here?
Answer: inactive

Question: And the Activity [8]?
Answer: Active

Question: What about the inhibition [9] of the same molecule?
Answer: inactive

Question: And the Activity [2]?
Answer: inactive

Question: What about the inhibition [10] of the same molecule?
Answer: Active

Question: What about the Activity [3] of the same molecule?
Answer: inactive

Question: And the inhibition [11]?
Answer: Active

Question: What about the “Ratio IC50” value [5] of the same molecule?
Answer: 72

Question: What about the IC50 [6] of the same molecule?
Answer: 50 nM

Question: What about the Activity [4] of the same molecule?
Answer: inactive

Question: And the Activity [12]?
Answer: Dose-Dependent Effect
